Measured values taken from ChEMBL document CHEMBL1201862, “PubChem BioAssay data set” (2004).
Active and inactive are the calls of the source.

How the values were obtained:
[1] = HepG2 cell cytotoxicity, dose response, cytotoxicity control for Shn3 inhibitor project, CellTiter-Glo, cherry-picked (AID 624134); assay type: functional, cell-based
[2] = target: Neurotensin receptor type 1 (Homo sapiens, UniProt P30989); assay type: functional;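 further: Image-based confirmatory dose-response assay measuring agonist activity at NTR1; NTR1-expressing U2OS osteosarcoma cells imaged for beta-arrestin GFP spot formation; agonist potency where compounds increase beta-arrestin recruitment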
[3] = control 3'UTR Renilla luciferase suppression, dose response, counter-screen for Shn3 inhibitor project, cell-based, Clone20-Shn3RL, cherry-picked (AID 624133); assay type: functional
[4] = Shn3 3'UTR reporter inhibitors, dose response, cell-based, Clone20 osteoblasts, firefly luciferase, cherry-picked (AID 624132); assay type: functional;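 further: firefly luciferase luminescence from reporter carrying the Shn3 3'UTR in osteoblasts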
Protein RecA = target: T1, Protein RecA (Mycobacterium tuberculosis, UniProt P9WHJ3); assay: Fluorescence Cell-Free Homogeneous Dose Retest to Identify Inhibitors of RecA-Intein Splicing Activity. [Related pubchem assays (depositor defined):AID2097, AID2223, AID489010, AID492950]; assay type: functional
T1 sequence (P9WHJ3 whole entry): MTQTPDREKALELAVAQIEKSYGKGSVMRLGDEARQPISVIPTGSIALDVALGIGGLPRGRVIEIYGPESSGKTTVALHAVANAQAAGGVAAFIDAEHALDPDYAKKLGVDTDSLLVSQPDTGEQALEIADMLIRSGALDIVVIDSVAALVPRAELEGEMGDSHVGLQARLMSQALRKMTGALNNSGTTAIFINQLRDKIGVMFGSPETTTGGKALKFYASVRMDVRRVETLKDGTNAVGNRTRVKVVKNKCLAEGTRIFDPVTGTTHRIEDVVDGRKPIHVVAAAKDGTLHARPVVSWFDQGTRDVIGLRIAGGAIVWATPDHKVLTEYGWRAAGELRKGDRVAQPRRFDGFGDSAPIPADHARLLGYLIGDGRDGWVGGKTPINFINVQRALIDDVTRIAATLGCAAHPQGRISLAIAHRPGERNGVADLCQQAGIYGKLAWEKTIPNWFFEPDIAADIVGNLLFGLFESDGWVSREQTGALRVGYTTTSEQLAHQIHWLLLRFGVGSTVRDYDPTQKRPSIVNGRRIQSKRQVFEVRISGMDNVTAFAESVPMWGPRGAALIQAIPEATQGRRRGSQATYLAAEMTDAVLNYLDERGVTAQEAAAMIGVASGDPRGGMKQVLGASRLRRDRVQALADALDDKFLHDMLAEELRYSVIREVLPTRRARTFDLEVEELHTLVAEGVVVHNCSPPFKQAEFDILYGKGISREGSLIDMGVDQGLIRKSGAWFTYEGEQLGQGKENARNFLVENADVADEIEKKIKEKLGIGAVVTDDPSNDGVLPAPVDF

[5] = target: T2, Replicative DNA helicase DnaB (Mycobacterium tuberculosis, UniProt P9WMR3); assay: DnaB intein splicing inhibitors, dose response, biochemical, cell-free fluorescence (AID 449749); assay type: functional
T2 sequence (P9WMR3 whole entry): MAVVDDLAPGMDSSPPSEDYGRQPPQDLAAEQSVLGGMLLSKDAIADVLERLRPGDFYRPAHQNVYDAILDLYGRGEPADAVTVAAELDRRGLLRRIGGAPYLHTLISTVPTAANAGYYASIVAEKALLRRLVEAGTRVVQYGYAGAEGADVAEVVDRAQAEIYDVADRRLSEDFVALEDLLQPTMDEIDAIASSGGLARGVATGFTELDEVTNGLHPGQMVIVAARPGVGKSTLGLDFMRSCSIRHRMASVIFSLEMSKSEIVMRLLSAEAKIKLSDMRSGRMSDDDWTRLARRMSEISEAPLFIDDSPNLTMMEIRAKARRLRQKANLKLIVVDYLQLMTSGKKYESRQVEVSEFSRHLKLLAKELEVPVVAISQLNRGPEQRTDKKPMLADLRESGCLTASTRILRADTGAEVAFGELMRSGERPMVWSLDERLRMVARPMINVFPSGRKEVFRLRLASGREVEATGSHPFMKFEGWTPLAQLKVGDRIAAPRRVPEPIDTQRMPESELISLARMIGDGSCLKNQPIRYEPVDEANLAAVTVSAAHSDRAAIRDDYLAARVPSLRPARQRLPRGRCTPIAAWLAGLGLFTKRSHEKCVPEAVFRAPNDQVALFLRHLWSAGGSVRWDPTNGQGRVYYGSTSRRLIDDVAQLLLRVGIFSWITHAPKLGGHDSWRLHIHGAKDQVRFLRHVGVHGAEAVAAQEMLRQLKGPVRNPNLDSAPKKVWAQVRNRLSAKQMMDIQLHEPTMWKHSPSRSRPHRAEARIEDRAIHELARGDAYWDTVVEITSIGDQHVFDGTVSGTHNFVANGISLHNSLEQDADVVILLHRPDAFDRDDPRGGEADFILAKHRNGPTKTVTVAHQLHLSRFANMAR

[6] = inhibitors of intracellular T. cruzi replication, confirmation, NIH3T3 host cells, beta-gal luminescence (AID 2044); assay type: functional, cell-based;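 further: intracellular parasites grown in NIH/3T3 mouse fibroblasts as host cells; luminescent beta-galactosidase reporter signal from transgenic T. cruzi replicating inside host cells; inhibitors lower the luminescence signal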
[7] = cytotoxicity toward NIH3T3 fibroblasts, dose response, counter-screen, cell-based, ATP luminescence, mouse fibroblasts (AID 2010); assay type: functional;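 further: cells exposed to compound for about 90 hours before reading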
[8] = target: DNA damage-inducible transcript 3 protein (Mus musculus, UniProt P35639); assay type: functional, Cricetulus griseus
[9] = Intein inhibitors as potential Tuberculosis drugs, a cytotoxicity screen. [Related pubchem assays (depositor defined):AID2221, AID2223, AID434968, AID435010, AID449749, AID449750, AID489010]; assay type: functional
[10] = target: Sphingosine 1-phosphate receptor 2 (Homo sapiens, UniProt O95136); assay: Dose Response Cell Based Assay for Antagonists of the S1P2 Receptor. [Related pubchem assays: 856, 736 ]; assay type: functional
[11] = target: T3, Kappa-type opioid receptor (Homo sapiens, UniProt P41145); assay type: functional
T3 sequence (P41145 whole entry): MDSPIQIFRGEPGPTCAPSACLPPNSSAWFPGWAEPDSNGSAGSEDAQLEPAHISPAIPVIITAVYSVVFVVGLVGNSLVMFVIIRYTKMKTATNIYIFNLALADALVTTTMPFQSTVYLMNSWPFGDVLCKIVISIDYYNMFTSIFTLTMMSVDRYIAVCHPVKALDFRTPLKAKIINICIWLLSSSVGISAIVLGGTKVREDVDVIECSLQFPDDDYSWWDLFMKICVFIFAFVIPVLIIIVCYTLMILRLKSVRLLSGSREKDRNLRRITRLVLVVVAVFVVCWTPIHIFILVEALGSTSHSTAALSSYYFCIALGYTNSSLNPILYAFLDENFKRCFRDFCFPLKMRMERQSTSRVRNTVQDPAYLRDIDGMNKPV

[12] = target: Heat shock protein HSP 90-alpha (Homo sapiens, UniProt P07900); assay type: functional, organism-based
[13] = target: T3, Kappa-type opioid receptor; assay type: functional; remark: listed apart in the source
[14] = target: T4, Heat shock factor protein 1 (Mus musculus, UniProt P38532); assay: HSF1 potentiators in luciferase reporter cells, confirmation, cell-based, NIH3T3, luminescence, dose retest (AID 435004); assay type: functional;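 further: stress induced by proteasome inhibitor MG132 added 30 min after compound; luciferase reporter driven by HSF1 response element in NIH3T3 cells; actives raise luminescence as potentiators of the MG132 stress response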
T4 sequence (P38532 whole entry): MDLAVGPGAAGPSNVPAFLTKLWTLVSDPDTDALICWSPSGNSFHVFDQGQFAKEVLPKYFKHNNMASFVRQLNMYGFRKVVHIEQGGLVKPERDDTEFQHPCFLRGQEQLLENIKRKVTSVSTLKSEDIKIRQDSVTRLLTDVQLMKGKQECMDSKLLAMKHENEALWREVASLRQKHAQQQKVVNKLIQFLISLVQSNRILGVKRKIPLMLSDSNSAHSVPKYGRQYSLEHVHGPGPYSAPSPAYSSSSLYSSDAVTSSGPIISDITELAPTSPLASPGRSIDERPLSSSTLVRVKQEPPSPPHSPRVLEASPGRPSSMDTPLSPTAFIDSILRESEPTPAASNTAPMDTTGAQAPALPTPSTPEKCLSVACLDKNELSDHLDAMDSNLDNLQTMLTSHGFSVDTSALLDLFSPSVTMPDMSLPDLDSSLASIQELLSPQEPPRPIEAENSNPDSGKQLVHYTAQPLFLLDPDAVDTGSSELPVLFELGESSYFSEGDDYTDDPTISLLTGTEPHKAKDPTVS

Beta-galactosidase = Beta-galactosidase (Escherichia coli, UniProt Q8VNN2); assay type: functional
[15] = target: T5, Polyadenylate-binding protein 1 (Homo sapiens, UniProt P11940); assay: PABP inhibition in translation initiation, SAR follow-up (AID 435018); assay type: functional
T5 sequence (P11940 whole entry): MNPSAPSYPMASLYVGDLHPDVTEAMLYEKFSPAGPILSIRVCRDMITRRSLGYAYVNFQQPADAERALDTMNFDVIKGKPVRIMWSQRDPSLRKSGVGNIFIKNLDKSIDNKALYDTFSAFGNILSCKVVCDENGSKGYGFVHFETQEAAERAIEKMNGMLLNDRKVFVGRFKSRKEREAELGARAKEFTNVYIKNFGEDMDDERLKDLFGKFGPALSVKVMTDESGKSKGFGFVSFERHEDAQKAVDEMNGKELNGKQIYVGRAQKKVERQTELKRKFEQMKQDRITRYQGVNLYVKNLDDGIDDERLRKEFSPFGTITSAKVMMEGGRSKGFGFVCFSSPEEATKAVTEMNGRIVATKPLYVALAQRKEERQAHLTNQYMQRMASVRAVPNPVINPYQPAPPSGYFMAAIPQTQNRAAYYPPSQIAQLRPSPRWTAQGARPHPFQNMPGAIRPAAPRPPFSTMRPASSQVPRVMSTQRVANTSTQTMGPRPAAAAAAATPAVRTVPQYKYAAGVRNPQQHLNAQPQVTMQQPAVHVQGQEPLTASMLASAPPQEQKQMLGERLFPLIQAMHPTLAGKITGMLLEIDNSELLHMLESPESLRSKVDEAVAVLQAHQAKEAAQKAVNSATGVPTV

[16] = target: T5, Polyadenylate-binding protein 1; assay: PABP poly(A) RNA binding inhibitors, primary screen, biochemical, fluorescence polarization, uHTS (AID 2014)
[17] = target: T6, Eukaryotic translation initiation factor 4H (Homo sapiens, UniProt Q15056); assay: human eIF4H binding inhibitors, primary screen, translation initiation inhibitor project, biochemical, uHTS, fluorescence polarization (AID 2012)
[18] = target: T6, Eukaryotic translation initiation factor 4H; assay: eIF4H inhibition in translation initiation, SAR follow-up (AID 435011); assay type: functional
[19] = target: T7, Voltage-gated N-type calcium channel alpha-1B subunit/Amyloid beta A4 precursor protein-binding family A member 1 (Homo sapiens, UniProt Q00975+Q02410); assay type: protein assay
T7 sequence (Q00975 whole entry): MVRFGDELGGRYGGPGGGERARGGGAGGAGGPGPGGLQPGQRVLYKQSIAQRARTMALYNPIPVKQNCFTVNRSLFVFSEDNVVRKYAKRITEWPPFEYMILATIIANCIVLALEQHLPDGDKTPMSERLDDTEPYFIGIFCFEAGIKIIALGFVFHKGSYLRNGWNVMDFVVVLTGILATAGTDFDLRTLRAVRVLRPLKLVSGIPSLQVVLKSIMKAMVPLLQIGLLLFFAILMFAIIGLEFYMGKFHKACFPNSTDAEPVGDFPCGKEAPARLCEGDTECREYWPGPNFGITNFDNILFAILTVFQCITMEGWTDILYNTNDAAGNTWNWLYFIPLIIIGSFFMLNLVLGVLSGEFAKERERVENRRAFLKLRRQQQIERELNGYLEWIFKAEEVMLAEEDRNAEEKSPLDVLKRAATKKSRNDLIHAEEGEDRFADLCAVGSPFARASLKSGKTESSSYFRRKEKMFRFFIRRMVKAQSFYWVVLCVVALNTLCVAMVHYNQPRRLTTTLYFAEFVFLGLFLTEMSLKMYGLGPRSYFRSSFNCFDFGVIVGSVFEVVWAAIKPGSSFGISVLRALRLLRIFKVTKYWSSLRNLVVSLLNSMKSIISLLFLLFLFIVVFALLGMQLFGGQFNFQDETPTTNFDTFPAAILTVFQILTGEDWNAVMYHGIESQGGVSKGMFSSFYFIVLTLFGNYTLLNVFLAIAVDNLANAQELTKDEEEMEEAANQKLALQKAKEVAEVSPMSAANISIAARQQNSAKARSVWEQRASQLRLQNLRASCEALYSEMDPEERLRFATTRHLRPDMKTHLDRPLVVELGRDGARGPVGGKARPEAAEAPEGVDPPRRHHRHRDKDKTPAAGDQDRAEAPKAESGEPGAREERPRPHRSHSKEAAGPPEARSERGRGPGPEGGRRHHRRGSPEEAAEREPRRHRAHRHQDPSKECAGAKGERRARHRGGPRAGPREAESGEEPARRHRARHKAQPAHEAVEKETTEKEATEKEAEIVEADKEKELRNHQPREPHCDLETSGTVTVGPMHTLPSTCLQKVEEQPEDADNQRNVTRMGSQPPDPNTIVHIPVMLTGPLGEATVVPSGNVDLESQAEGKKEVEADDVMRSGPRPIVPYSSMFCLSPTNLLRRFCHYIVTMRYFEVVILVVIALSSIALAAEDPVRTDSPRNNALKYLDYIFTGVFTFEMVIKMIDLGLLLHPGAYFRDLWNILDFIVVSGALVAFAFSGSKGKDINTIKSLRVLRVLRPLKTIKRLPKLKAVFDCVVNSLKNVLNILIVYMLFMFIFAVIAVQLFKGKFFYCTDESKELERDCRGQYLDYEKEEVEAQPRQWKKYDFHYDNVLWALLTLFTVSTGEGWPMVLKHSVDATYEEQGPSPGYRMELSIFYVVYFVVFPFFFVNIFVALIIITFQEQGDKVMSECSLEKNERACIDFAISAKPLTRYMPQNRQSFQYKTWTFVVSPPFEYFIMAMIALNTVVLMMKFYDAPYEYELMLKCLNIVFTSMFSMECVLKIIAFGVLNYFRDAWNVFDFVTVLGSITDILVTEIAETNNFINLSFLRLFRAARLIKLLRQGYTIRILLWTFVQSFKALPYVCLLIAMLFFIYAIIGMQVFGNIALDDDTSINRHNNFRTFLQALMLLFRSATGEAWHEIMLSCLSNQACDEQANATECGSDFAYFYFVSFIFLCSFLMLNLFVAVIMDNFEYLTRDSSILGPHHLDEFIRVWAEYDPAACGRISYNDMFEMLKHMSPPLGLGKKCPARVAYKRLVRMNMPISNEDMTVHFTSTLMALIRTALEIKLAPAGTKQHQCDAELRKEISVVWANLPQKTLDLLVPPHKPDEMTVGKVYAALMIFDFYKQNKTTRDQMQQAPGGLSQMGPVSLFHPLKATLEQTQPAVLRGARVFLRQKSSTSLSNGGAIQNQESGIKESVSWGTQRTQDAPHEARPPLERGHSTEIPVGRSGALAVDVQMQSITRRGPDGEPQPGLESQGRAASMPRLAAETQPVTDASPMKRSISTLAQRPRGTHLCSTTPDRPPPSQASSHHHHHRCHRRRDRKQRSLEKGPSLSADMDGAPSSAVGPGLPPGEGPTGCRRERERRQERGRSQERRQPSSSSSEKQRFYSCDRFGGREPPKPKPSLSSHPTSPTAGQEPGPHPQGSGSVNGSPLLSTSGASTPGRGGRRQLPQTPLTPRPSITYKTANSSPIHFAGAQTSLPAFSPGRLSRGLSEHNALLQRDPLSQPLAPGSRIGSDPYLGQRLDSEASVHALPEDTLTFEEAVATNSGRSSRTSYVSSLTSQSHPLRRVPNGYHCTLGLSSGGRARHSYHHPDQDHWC
T7 sequence (Q02410 whole entry): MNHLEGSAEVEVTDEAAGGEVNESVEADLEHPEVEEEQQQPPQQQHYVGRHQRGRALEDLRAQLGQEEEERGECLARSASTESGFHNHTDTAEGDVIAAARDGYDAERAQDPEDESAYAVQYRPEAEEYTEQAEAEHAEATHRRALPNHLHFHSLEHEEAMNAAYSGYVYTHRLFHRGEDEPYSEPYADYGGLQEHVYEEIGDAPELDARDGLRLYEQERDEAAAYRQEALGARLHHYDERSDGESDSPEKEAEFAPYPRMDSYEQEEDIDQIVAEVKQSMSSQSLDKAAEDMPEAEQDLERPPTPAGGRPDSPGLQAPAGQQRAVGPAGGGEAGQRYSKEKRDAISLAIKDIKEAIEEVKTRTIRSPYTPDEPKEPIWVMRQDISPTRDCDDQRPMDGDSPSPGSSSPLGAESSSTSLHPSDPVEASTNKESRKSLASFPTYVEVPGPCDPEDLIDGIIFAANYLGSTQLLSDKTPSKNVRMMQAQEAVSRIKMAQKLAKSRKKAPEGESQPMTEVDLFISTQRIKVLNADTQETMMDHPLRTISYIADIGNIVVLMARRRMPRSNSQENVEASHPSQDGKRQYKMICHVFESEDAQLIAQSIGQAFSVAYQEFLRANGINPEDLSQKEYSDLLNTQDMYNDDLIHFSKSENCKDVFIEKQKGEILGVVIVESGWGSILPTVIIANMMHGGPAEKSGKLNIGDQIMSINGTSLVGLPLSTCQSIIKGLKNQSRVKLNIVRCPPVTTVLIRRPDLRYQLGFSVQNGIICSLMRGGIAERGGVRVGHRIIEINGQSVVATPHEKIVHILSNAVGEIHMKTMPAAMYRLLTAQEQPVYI

[20] = target: T7, Voltage-gated N-type calcium channel alpha-1B subunit/Amyloid beta A4 precursor protein-binding family A member 1; assay type: protein assay; remark: listed apart in the source
Ion channel NompC = Ion channel NompC (Danio rerio, UniProt Q7T1G6); assay: Dose response cell-based high-throughput screening assay for agonists of the transient receptor potential channel N1 (TRPN1). [Related pubchem assays (depositor defined):AID1424, AID1448]; assay type: functional
Mucolipin-3 = Mucolipin-3 (Homo sapiens, UniProt Q8TDD5); assay: Fluorescence counterscreen assay for […] agonists: dose response cell-based high-throughput screening assay to identify agonists of the transient receptor potential channel ML3 (TRPML3). [Related pubchem assays: 1424, 1448 ]; assay type: functional
[21] = target: Alkaline phosphatase, placental type (Homo sapiens, UniProt P05187); assay: PLAP enzyme inhibitors, confirmation, biochemical, luminescence (AID 1512); assay type: functional
[22] = target: T8, Alkaline phosphatase, tissue-nonspecific isozyme (Homo sapiens, UniProt P05186); assay: human TNAP enzyme inhibitors, SAR follow-up, biochemical, luminescent, dose response (AID 1056)
T8 sequence (P05186 whole entry): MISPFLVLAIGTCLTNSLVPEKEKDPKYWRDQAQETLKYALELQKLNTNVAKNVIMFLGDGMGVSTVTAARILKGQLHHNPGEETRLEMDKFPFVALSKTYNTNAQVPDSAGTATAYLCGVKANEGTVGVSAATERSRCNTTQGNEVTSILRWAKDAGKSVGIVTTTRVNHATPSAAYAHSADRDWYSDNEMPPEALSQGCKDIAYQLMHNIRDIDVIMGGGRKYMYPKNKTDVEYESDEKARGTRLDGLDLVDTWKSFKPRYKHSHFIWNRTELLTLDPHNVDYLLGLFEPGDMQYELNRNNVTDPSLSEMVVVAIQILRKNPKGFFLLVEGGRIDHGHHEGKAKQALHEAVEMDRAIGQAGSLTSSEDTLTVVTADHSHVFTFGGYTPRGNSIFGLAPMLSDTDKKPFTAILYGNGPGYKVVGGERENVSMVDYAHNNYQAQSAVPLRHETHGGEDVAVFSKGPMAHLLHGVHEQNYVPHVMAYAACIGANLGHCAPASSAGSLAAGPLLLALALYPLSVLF

[23] = target: Glyceraldehyde-3-phosphate dehydrogenase (Homo sapiens, UniProt P04406)
Melanocortin receptor 4 = Melanocortin receptor 4 (Homo sapiens, UniProt P32245); assay type: functional, cell-based;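 further: Cell-based assay with luminescence read-out, confirmatory dose-response testing for agonist activity of biased ligands at MC4R; human U2OS cells with tagged receptor and beta-arrestin; potency of agonists that increase receptor coupling to beta-arrestin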
[24] = target: T9, Ubiquitin-conjugating enzyme E2 N (Homo sapiens, UniProt P61088); assay type: functional;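 further: Dose-response confirmation in a TR-FRET assay detecting UBC13-driven polyubiquitin chain formation, inhibition measured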
T9 sequence (P61088 whole entry): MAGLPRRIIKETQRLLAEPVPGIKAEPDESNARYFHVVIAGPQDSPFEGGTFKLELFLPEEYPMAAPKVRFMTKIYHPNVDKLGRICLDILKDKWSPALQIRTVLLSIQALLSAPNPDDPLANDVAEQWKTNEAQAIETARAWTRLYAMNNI

[25] = Luminescence Cell-Based Dose Retest to Confirm Inhibitors of Cancer Stem Cells. [Related pubchem assays (depositor defined):AID2717, AID2721]; assay type: functional; details: Homo sapiens
INS1 = assay: beta cell apoptosis inhibitors, cytokine rescue, dose response, luminescence, retest (AID 449756); assay type: functional, cell-based; details: Rattus norvegicus;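 further: cell death triggered by IL-1 beta plus TNF-alpha plus IFN-gamma mixture; protective hits raise ATP signal compared with cytokine alone wells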
Integrin alpha-4 = Integrin alpha-4 (Homo sapiens, UniProt P13612); assay: VLA-4 integrin allosteric ligands, SAR follow-up, cell-based, LIBS antibody binding, flow cytometry (AID 488791); assay type: functional
Hexokinase = Hexokinase (Trypanosoma brucei, UniProt Q38C41); assay: Confirmation assay for inhibitors of Trypanosoma brucei hexokinase 1-Analogue-first series. [Related pubchem assays (depositor defined):AID1430, AID1632, AID2516, AID2560, AID2579, AID2600, AID449725, AID492951]; assay type: functional
Sequence of Hexokinase (Q38C41 whole entry): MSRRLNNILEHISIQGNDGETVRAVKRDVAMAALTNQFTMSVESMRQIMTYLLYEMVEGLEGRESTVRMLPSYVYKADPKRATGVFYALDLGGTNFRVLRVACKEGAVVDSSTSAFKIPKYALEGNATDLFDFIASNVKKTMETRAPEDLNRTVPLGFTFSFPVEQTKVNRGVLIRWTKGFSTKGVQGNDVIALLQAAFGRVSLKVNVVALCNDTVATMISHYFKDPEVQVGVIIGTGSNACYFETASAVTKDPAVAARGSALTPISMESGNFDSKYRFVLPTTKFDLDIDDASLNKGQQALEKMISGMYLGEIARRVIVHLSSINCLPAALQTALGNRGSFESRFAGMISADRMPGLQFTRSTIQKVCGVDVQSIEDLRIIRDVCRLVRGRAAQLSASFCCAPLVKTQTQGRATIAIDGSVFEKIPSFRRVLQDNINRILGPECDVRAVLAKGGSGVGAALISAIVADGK
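Wherever CC50 is given: cells exposed to compound for 72 hours before luminescence readout.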

Cc1cc(Br)c2c(c1)/C(=C/C(=O)c1cccs1)C(=O)N2
AC50 [1]: 48.5 µM (active) | EC50 [2]: 17.4 µM (active) | AC50 [3]: 20.7 µM (active) | AC50 [4]: 19.9 µM (active) | EC50 (Protein RecA): 3.27 µM (active) | AC50 [5]: 2.46 µM (active) | EC50 [6]: 1.95 µM (active) | EC50 [7]: > 60 µM (not active) | Absolute IC50 (CHOP) [8]: 10 µM | CC50 [9]: 18.4 µM (active)

O=C(C#Cc1cccc([N+](=O)[O-])c1)c1ccccc1
IC50 [10]: 3.69 µM (active) | IC50 [11]: > 32 µM | AC50 [12]: 0.592 µM (active) | IC50 [13]: 22.8 µM (inactive) | EC50 [14]: 1.08 µM (inconclusive) | EC50 (Beta-galactosidase): > 31.5 µM (inactive)

COC(=O)c1c(Sc2ccccc2)c2ccccc2n1C
IC50 [15]: 13.8 µM (active) | IC50 [16]: 2.76 µM (active) | IC50 [17]: > 100 µM (inactive) | IC50 [18]: 4.23 µM (active)

COc1cc(/C=C2\SC(=S)N(c3cccnc3)C2=O)ccc1O
IC50 [19]: 4.4 µM (active) | IC50 [20]: > 50 µM (inactive) | EC50 (Ion channel NompC): > 29.9 µM (inactive) | EC50 (Mucolipin-3): > 29.9 µM (not active)

O=C(CSc1n[nH]c(-c2ccccc2Cl)n1)Nc1ccccc1F
IC50 [21]: > 100 µM (inactive) | IC50 [22]: 4.7 µM (active) | IC50 [23]: > 100 µM (not active)

CN(C)CCOc1ccc(-c2c(-c3ccccc3)sc3ccccc23)cc1
EC50 (Melanocortin receptor 4): > 89.2 µM (inactive) | IC50 [24]: > 20 µM (inactive) | AC50 [25]: 2.93 µM (active) | AC50 (INS1): 6.82 µM (active) | EC50 (Integrin alpha-4): > 30 µM (inactive)

Cn1c2ccccc2c(=O)n1-c1ccccc1
IC50 (Hexokinase): > 25 µM (inactive)
